Like-named read-outs stand apart in the source and are kept apart here.
Tests used:
[1] = test system: Deinococcus geothermalis M36-7D—21
Experimental: The growth of Deinococcus geothermalis M36-7D—21 was performed in microplates in CMG medium containing Peptone 2 g/L; Yeast Extract 5 g/L; Glucose 55 mM (10 g/L); MOPS acid 40 mM; NH4Cl 20 mM; NaOH 10 mM; KOH 10 mM; CaCl2.2H2O 0.5 μM; Na2SO4.10H2O 0.276 mM; MgCl2.6H2O 0.528 mM; (NH4)6(Mo7)O24.4H2O 3 nM; H3BO3 0.4 μM; CoCl2.6H2O 30 nM; CuSO4.5H2O 10 nM; MnCl2 0.25 μM; ZnSO4.7H2O 10 nM; D-Biotin 1 μg/L; Niacin (nicotinic acid) 1 μg/L; Pyridoxin (pyridoxal HCl ou vitamine B6) 1 μg/L; Thiamin HCl (vitamine B1); FeCl3 20 μM; Sodium Citrate.2H2O 20 μM; K2HPO4 5,7 mM.
The addition of 100 mM hydrogen peroxide was made at TO (begin of the growth) or at the exponential phase.
The growth was monitored by measuring the OD600 nm.

M36-7Dwt = test system: M36-7Dwt
From the text: (§1) And the “Inhibitory Concentration of an oxidizer towards a Deinococcus or a related bacterium” (“ICD”) refers to the minimum concentration of said oxidizer in the culture medium that inhibits or reduces the growth of the Deinococcus. The IC may be easily ascertained for each microorganism or each strain thereof, and for each oxidizer, by implementing test cultures. For example, the strain of interest may be cultivated in several parallel cultures, each of said cultures containing an increased concentration of the oxidizer. After 2 or 3 days, the cultures are observed to measure the microbial growth and thereby to determine the IC.
(§2) Preculture was done for 3 days in CMG 1%. After checking the purity of the culture, cell pellet was washed three times in sterile water and then DO was adjusted to 2.
(§3) Hydrogen peroxide stock solution: H2O2 (30%wt solution, SIGMA ref. 216763, stored at 4° C.)
(§4) Preparation of the H2O2 range:
(§5) Dispense 180 μl of media into culture wells (200 μl into blank wells)
(§6) Add 20 μL of washed cell pellet at an optical density (600 nm) of 2 into well to be inoculated.
(§7) Gently add 50 μL of mineral oil on the well surface to limit evaporation.
(§8) Microplate was incubated for 3 days at 30 or 45° C. according to the optimal growth temperature indicated in the first part. Growth was monitored by an absorbance measure.

[2] = test system: Saccharomyces cerevisiae 2640; settings: S. cerevisiae, 30° C., CMG medium
From the text: as §1, §2, §3, §4, §5, §6, §7, §8

[3] = test system: Deinococcus radiodurans R1
From the text: as §1, §2, §3, §4, §5, §6, §7, §8

Escherichia coli K12 = settings: E. coli, 30° C., CMG medium
From the text: as §1, §2, §3, §4, §5, §6, §7, §8

M36-7D_21 [4] = test system: M36-7D_21
From the text: as §1, §2, §3, §4, §5, §6, §7, §8

Zymomonas mobilis DSM424 = settings: Z. mobilis, 30° C., CMG medium
From the text: as §1, §2, §3, §4, §5, §6, §7, §8

M36-7D_17 = test system: M36-7D_17
From the text: as §1, §2, §3, §4, §5, §6, §7, §8

MX6-1E_04 = settings: no growth after 24 or 96 h on agar plates at 45° C.
Experimental: (§9) Deinococcus geothermalis M36-7D—21 and MX61E—04 were cultivated in 20% starch effluent pH 5 containing 15 mM NH4Cl and 5.30 mM K2HPO4
(§10) 5 ml of the cultures were treated during one hour with different concentration of H2O2 (20, 50,100, 150 and 200 mM) at room temperature or at 45° C.
(§11) The control sample corresponds to untreated sample (0 mM H2O2).
(§12) The control and treated samples were then spread on agar plates containing 10% effluent starch and incubated during 24 and 96 hours at 45° C.
(§13) The inhibitory concentration (IC expressed in mM) is the hydrogen peroxide concentration from which there was no growth after 24 or 96 h.

M36-7D_21 [5] = settings: no growth after 24 or 96 h on agar plates at 45° C.
Experimental: as §9, §10, §11, §12, §13

[6] = one hour treatment at room temperature

OO [hydrogen peroxide]
IC: concentration of hydrogen peroxide from which there was no growth after 3 days of incubation (M36-7D_18; M36-7D_18, CMG medium, 3 days): 200 mM | Concentration of hydrogen peroxide in the presence of which the strain is able to grow (M36-7D_18; modified D. geothermalis M36-7D (M36-7D_18)): up to 190 mM | Effect on growth of M36-7D—21 (OD600 nm) ([1]; 100 mM hydrogen peroxide added at TO (begin of the growth)): did not affect the growth | Effect on growth of M36-7D—21 (OD600 nm) ([1]; 100 mM hydrogen peroxide added at the exponential phase): did not affect the growth | Concentration of hydrogen peroxide in the presence of which the strain is able to grow (M36-7Dwt; D. geothermalis M36-7Dwt): up to 190 mM | IC: concentration of hydrogen peroxide from which there was no growth after 3 days of incubation (M36-7Dwt; M36-7Dwt, 45° C., CMG medium, 3 days): 200 mM | IC: concentration of hydrogen peroxide from which there was no growth after 3 days of incubation [2]: 20 mM | Concentration of hydrogen peroxide in the presence of which the strain is able to grow ([3]; D. radiodurans R1): up to 190 mM | IC: concentration of hydrogen peroxide from which there was no growth after 3 days of incubation ([3]; D. radiodurans R1, 30° C., CMG medium, 3 days): 200 mM | IC: concentration of hydrogen peroxide from which there was no growth after 3 days of incubation (Escherichia coli K12): 10 mM | IC: concentration of hydrogen peroxide from which there was no growth after 3 days of incubation (M36-7D_21 [4]; M36-7D_21, CMG medium, 3 days): 200 mM | Concentration of hydrogen peroxide in the presence of which the strain is able to grow (M36-7D_21 [4]; modified D. geothermalis M36-7D (M36-7D_21)): up to 190 mM | IC: concentration of hydrogen peroxide from which there was no growth after 3 days of incubation (Zymomonas mobilis DSM424): 10 mM | IC: concentration of hydrogen peroxide from which there was no growth after 3 days of incubation (M36-7D_17; M36-7D_17, CMG medium, 3 days): 200 mM | Concentration of hydrogen peroxide in the presence of which the strain is able to grow (M36-7D_17; modified D. geothermalis M36-7D (M36-7D_17)): up to 190 mM | Inhibitory concentration (mM) of hydrogen peroxide (MX6-1E_04; one hour treatment at 45° C.): 50 mM | Inhibitory concentration (mM) of hydrogen peroxide (MX6-1E_04; [6]): 100 mM | Inhibitory concentration (mM) of hydrogen peroxide (M36-7D_21 [5]; one hour treatment at 45° C.): 200 mM | Inhibitory concentration (mM) of hydrogen peroxide (M36-7D_21 [5]; [6]): >200 mM

From patent US20160032327A1, “PROCESS FOR CULTURING DEINOCOCCUS BACTERIA” (DEINOVE, priority 2012, published 2016)
